Columns and labels:
DPP1 in HL-60 cells = DPP1 in HL-60 cells (Homo sapiens, UniProt P53634); experiment: DPP1 Cell Single-Point Percent Inhibition Testing; type: cell-based; set-up: host or cells: HL-60 cells; settings: final compound concentration 5 nM, n = 1
Summary of the method: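 HL-60 cells in unsupplemented RPMI preincubated 60 min at 37 °C with test article (5 nM final, 0.1% DMSO), then given cell-permeable H-Gly-Phe-AFC (100 μM final) for 30 min. Fluorescence at 400/505 nm; percent inhibition versus vehicle after subtracting cell-free background and 10 μM brensocatib non-specific signal.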

human DPP1 enzyme = human DPP1 enzyme (Homo sapiens, UniProt P53634); experiment: Human DPP1 Enzyme Single-Point Percent Inhibition Testing (HL-60 lysate); type: biochemical; set-up: A crude lysate of HL-60 cells (ATCC; Manassas, VA) was used as a source of human DPP1 enzyme; host or cells: HL-60 cells (crude lysate); settings: final compound concentration of 10 nM, 400 μM H-Gly-Arg-AMC, n = 1
Summary of the method: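 Enzyme source was HL-60 cell lysate in MES pH 6.0 buffer with NaCl and DTT, pre-incubated 10 min at 37° C with 10 nM compound (final, 1% DMSO). Cleavage of 400 μM H-Gly-Arg-AMC was followed at 350/450 nm over 90 min at 37° C, and percent inhibition was taken against vehicle wells.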

Sequence of human DPP1 enzyme (P53634 25-463): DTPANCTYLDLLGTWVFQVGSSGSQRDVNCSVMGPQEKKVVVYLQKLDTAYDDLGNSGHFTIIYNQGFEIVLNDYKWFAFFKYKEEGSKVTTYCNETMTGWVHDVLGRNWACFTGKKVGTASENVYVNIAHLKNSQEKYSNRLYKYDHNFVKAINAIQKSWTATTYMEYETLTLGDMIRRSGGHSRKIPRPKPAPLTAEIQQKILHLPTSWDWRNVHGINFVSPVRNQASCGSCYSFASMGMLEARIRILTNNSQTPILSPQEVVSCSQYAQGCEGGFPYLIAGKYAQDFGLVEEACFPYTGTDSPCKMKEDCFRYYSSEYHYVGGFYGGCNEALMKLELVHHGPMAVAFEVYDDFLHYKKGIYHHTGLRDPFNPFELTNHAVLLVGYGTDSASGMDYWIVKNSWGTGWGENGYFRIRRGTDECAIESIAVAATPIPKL
Sequence of DPP1 in HL-60 cells (P53634 25-463): as above

Work on `C[C@@H]1NC[C@@H](C(=O)N[C@H](C#N)Cc2ccc(-c3ccc4c(n3)CCCN4)cc2F)OC[C@H]1O` [Compound A101] yielded an inhibition at 0.005 µM (DPP1 in HL-60 cells) of 76.5 to 93.9% and an inhibition at 0.01 µM (human DPP1 enzyme) of at least 66.7%.
`N#C[C@H](Cc1ccc(-c2cnc3c(n2)CCCC3)cc1F)NC(=O)[C@@H]1CNCCCO1` [Compound A120] showed an inhibition at 0.005 µM (DPP1 in HL-60 cells) of at most 76.5% and an inhibition at 0.01 µM (human DPP1 enzyme) of at most 40%.
With `CO[C@@H]1CCNC[C@@H](C(=O)N[C@H](C#N)Cc2ccc(-c3ccc4c(c3)C3(CCN(C)C3)OC4=O)cc2)OC1` (stereo partly shown) [Compound F8] the inhibition at 0.005 µM (DPP1 in HL-60 cells) was at most 76.5% and the inhibition at 0.01 µM (human DPP1 enzyme) was at least 66.7%.
Molecule `CCN1C(=O)Cc2ccc(-c3ccc(C[C@@H](C#N)NC(=O)[C@@H]4CN[C@@H](C)[C@H](O)CO4)c(F)c3)cc21` [Compound G8] has an inhibition at 0.005 µM (DPP1 in HL-60 cells) of at most 76.5% and an inhibition at 0.01 µM (human DPP1 enzyme) of at least 66.7%.
For `COC1CNC[C@@H](C(=O)N[C@H](C#N)Cc2ccc(-c3cc4c(C)ncc(C)n4c3)cc2)OC1` (stereo partly shown) [Compound A125], the inhibition at 0.005 µM (DPP1 in HL-60 cells) was at least 93.9% and the inhibition at 0.01 µM (human DPP1 enzyme) was at least 66.7%.
`CO[C@@H]1CCNC[C@@H](C(=O)N[C@H](C#N)Cc2ccc(-c3ccc4c(c3)C3(CCCN(C)C3)C(=O)N4C)cc2F)OC1` (stereo partly shown) [Compound F12] was tested, and the inhibition at 0.005 µM (DPP1 in HL-60 cells) was at most 76.5% and the inhibition at 0.01 µM (human DPP1 enzyme) was at least 66.7%.
`N#CC(Cc1cc2c(cc1F)-c1cc(C3COC3)c(F)cc1CO2)NC(=O)[C@@H]1CNCCCO1` (stereo partly shown) [Compound B31] was tested, and the inhibition at 0.005 µM (DPP1 in HL-60 cells) was 76.5 to 93.9% and the inhibition at 0.01 µM (human DPP1 enzyme) was 40 to 66.7%.
`CCN1C(=O)Cc2ccc(-c3ccc(C[C@@H](C#N)NC(=O)[C@@H]4CNCC(OC)CO4)cc3)cc21` (stereo partly shown) [Compound G3] gave an inhibition at 0.005 µM (DPP1 in HL-60 cells) of 76.5 to 93.9% and an inhibition at 0.01 µM (human DPP1 enzyme) of at least 66.7%.
`COC1CNC[C@@H](C(=O)NC(C#N)Cc2cc3c(cc2F)-c2cc4c(cc2CO3)oc(=O)n4C)OC1` (stereo partly shown) [Compound C14] gave an inhibition at 0.005 µM (DPP1 in HL-60 cells) of at most 76.5% and an inhibition at 0.01 µM (human DPP1 enzyme) of at least 66.7%.
With `COC1CNC[C@@H](C(=O)N[C@H](C#N)Cc2ccc(-c3ccc4c(n3)CCCN4)cc2)OC1` (stereo partly shown) [Compound A87] the inhibition at 0.005 µM (DPP1 in HL-60 cells) was 76.5 to 93.9% and the inhibition at 0.01 µM (human DPP1 enzyme) was at least 66.7%.
Molecule `Cc1ncc(C)n2cc(-c3ccc(C[C@@H](C#N)NC(=O)[C@@H]4CNCCCO4)cc3)cc12` [Compound A140] has an inhibition at 0.005 µM (DPP1 in HL-60 cells) of 76.5 to 93.9% and an inhibition at 0.01 µM (human DPP1 enzyme) of at most 40%.
For `CO[C@@H]1CCNC[C@@H](C(=O)NC(C#N)Cc2cc3c(cc2F)-c2cc4c(cc2CO3)oc(=O)n4C)OC1` (stereo partly shown) [Compound C11], the inhibition at 0.005 µM (DPP1 in HL-60 cells) was 76.5 to 93.9% and the inhibition at 0.01 µM (human DPP1 enzyme) was at least 66.7%.
Molecule `COC1CNC[C@@H](C(=O)N[C@H](C#N)Cc2ccc(-c3ccc4cnn(C)c4c3)cc2F)OC1` (stereo partly shown) [Compound H13] has an inhibition at 0.005 µM (DPP1 in HL-60 cells) of 76.5 to 93.9% and an inhibition at 0.01 µM (human DPP1 enzyme) of at least 66.7%.
`CO[C@@H]1CCNC[C@@H](C(=O)N[C@H](C#N)Cc2ccc(-c3ccc4nnn(C)c4c3)cc2)OC1` [Compound H6] was tested, and the inhibition at 0.005 µM (DPP1 in HL-60 cells) was at most 76.5% and the inhibition at 0.01 µM (human DPP1 enzyme) was at least 66.7%.
With `CO[C@H]1CCO[C@H](C(=O)N[C@H](C#N)Cc2ccc(-c3ccc4nnn(C)c4c3)cc2F)CNC1` [Compound H20] the inhibition at 0.005 µM (DPP1 in HL-60 cells) was at most 76.5% and the inhibition at 0.01 µM (human DPP1 enzyme) was 40 to 66.7%.
In the case of `C[C@@H]1NC[C@@H](C(=O)N[C@H](C#N)Cc2ccc(-c3ccc4nnn(C)c4c3)cc2)OC[C@H]1O` [Compound H24], the inhibition at 0.005 µM (DPP1 in HL-60 cells) is reported as at most 76.5% and the inhibition at 0.01 µM (human DPP1 enzyme) is reported as at least 66.7%.
`Cc1ncc(C)n2cc(-c3ccc(C[C@@H](C#N)NC(=O)[C@@H]4CN[C@@H](C)[C@H](O)CO4)cc3)cc12` [Compound A131] was tested, and the inhibition at 0.005 µM (DPP1 in HL-60 cells) was at most 76.5% and the inhibition at 0.01 µM (human DPP1 enzyme) was at least 66.7%.
Work on `C[C@@H]1NC[C@@H](C(=O)N[C@H](C#N)Cc2ccc(-c3cnc4c(n3)CCCC4)cc2)OC[C@@H]1O` [Compound A108] yielded an inhibition at 0.005 µM (DPP1 in HL-60 cells) of at most 76.5% and an inhibition at 0.01 µM (human DPP1 enzyme) of at most 40%.
`C[C@@H]1NC[C@@H](C(=O)NC(C#N)Cc2cc3c(cc2F)-c2ccc4oc(=O)n(C)c4c2CO3)OC[C@@H]1O` (stereo partly shown) [Compound C23] showed an inhibition at 0.005 µM (DPP1 in HL-60 cells) of at most 76.5% and an inhibition at 0.01 µM (human DPP1 enzyme) of 40 to 66.7%.
For `CO[C@H]1CCO[C@H](C(=O)N[C@H](C#N)Cc2ccc(-c3ccc4cnn(C5CCN(C)CC5)c4c3)cc2F)CNC1` [Compound H16], the inhibition at 0.005 µM (DPP1 in HL-60 cells) was at most 76.5% and the inhibition at 0.01 µM (human DPP1 enzyme) was at least 66.7%.
`CO[C@H]1CCO[C@H](C(=O)N[C@H](C#N)Cc2ccc(-c3cc4c(C)ncc(C)n4c3)cc2)CNC1` [Compound A128] gave an inhibition at 0.005 µM (DPP1 in HL-60 cells) of 76.5 to 93.9% and an inhibition at 0.01 µM (human DPP1 enzyme) of 40 to 66.7%.
`N#C[C@H](Cc1ccc(-c2ccc3c(n2)CCCN3)cc1)NC(=O)[C@@H]1CNCCCO1` [Compound A117] showed an inhibition at 0.005 µM (DPP1 in HL-60 cells) of at most 76.5% and an inhibition at 0.01 µM (human DPP1 enzyme) of at most 40%.
Molecule `CO[C@H]1CCO[C@H](C(=O)N[C@H](C#N)Cc2ccc(-c3ccc(S(=O)(=O)N4CCC4)cc3)cc2)CNC1` [Compound F29] has an inhibition at 0.005 µM (DPP1 in HL-60 cells) of at most 76.5% and an inhibition at 0.01 µM (human DPP1 enzyme) of at most 40%.
Work on `Cc1cn2cc(-c3ccc(C[C@@H](C#N)NC(=O)[C@@H]4CNCCCO4)c(F)c3)cc2c(C)n1` [Compound A118] yielded an inhibition at 0.005 µM (DPP1 in HL-60 cells) of at most 76.5% and an inhibition at 0.01 µM (human DPP1 enzyme) of at most 40%.
In the case of `CO[C@H]1CCO[C@H](C(=O)N[C@H](C#N)Cc2ccc(-c3cnc4c(n3)CCCC4)cc2F)CNC1` [Compound A97], the inhibition at 0.005 µM (DPP1 in HL-60 cells) is reported as at most 76.5% and the inhibition at 0.01 µM (human DPP1 enzyme) is reported as 40 to 66.7%.
With `N#C[C@H](Cc1ccc(-c2ccc3c(n2)CCCN3)cc1F)NC(=O)[C@@H]1CNCCCO1` [Compound A119] the inhibition at 0.005 µM (DPP1 in HL-60 cells) was at most 76.5% and the inhibition at 0.01 µM (human DPP1 enzyme) was at most 40%.
For `N#C[C@H](Cc1ccc(-c2ccc(S(=O)(=O)N3CCC3)cc2)cc1F)NC(=O)[C@@H]1CNCCCO1` [Compound 49], the inhibition at 0.005 µM (DPP1 in HL-60 cells) was at most 76.5% and the inhibition at 0.01 µM (human DPP1 enzyme) was at most 40%.
Work on `COC1CNC[C@@H](C(=O)N[C@H](C#N)Cc2ccc(-c3ccc4cnn(C)c4c3)cc2)OC1` (stereo partly shown) [Compound H11] yielded an inhibition at 0.005 µM (DPP1 in HL-60 cells) of 76.5 to 93.9% and an inhibition at 0.01 µM (human DPP1 enzyme) of at least 66.7%.
With `Cc1cn2cc(-c3ccc(C[C@@H](C#N)NC(=O)[C@@H]4CNCCCO4)cc3)cc2c(C)n1` [Compound A116] the inhibition at 0.005 µM (DPP1 in HL-60 cells) was at most 76.5% and the inhibition at 0.01 µM (human DPP1 enzyme) was at most 40%.
`C[C@@H]1NC[C@@H](C(=O)N[C@H](C#N)Cc2ccc(-c3ccn4ccnc4c3)cc2)OC[C@@H]1O` [Compound H43] showed an inhibition at 0.005 µM (DPP1 in HL-60 cells) of at most 76.5% and an inhibition at 0.01 µM (human DPP1 enzyme) of at most 40%.
`CO[C@@H]1CCNC[C@@H](C(=O)N[C@H](C#N)Cc2ccc(-c3ccc4cnn(C5CCN(C)CC5)c4c3)cc2F)OC1` [Compound H4] was tested, and the inhibition at 0.005 µM (DPP1 in HL-60 cells) was at most 76.5% and the inhibition at 0.01 µM (human DPP1 enzyme) was at least 66.7%.
`CO[C@@H]1CCNC[C@@H](C(=O)N[C@H](C#N)Cc2ccc(-c3ccc(CN4CCN(C)CC4)cc3)cc2)OC1` [Compound F10] gave an inhibition at 0.005 µM (DPP1 in HL-60 cells) of at most 76.5% and an inhibition at 0.01 µM (human DPP1 enzyme) of at least 66.7%.
`CO[C@@H]1CCNC[C@@H](C(=O)N[C@H](C#N)Cc2ccc(-c3ccc4c(n3)CCCN4)cc2)OC1` [Compound A81] was tested, and the inhibition at 0.005 µM (DPP1 in HL-60 cells) was at most 76.5% and the inhibition at 0.01 µM (human DPP1 enzyme) was 40 to 66.7%.
In the case of `CO[C@H]1CCO[C@H](C(=O)N[C@H](C#N)Cc2ccc(-c3ccc4c(n3)CCCN4)cc2)CNC1` [Compound A93], the inhibition at 0.005 µM (DPP1 in HL-60 cells) is reported as at most 76.5% and the inhibition at 0.01 µM (human DPP1 enzyme) is reported as at most 40%.
With `CO[C@@H]1CCNC[C@@H](C(=O)N[C@H](C#N)Cc2ccc(-c3cc4c(C)nc(C)cn4c3)cc2)OC1` [Compound A80] the inhibition at 0.005 µM (DPP1 in HL-60 cells) was 76.5 to 93.9% and the inhibition at 0.01 µM (human DPP1 enzyme) was at least 66.7%.
`Cc1cn2cc(-c3ccc(C[C@@H](C#N)NC(=O)[C@@H]4CN[C@@H](C)[C@@H](O)CO4)cc3)cc2c(C)n1` [Compound A104] gave an inhibition at 0.005 µM (DPP1 in HL-60 cells) of at most 76.5% and an inhibition at 0.01 µM (human DPP1 enzyme) of at most 40%.
With `C[C@@H]1NC[C@@H](C(=O)N[C@H](C#N)Cc2ccc(-c3ccc4nnn(C)c4c3)cc2)OC[C@@H]1O` [Compound H30] the inhibition at 0.005 µM (DPP1 in HL-60 cells) was at most 76.5% and the inhibition at 0.01 µM (human DPP1 enzyme) was at most 40%.
Molecule `CN1CC2(C1)OC(=O)c1ccc(-c3ccc(C[C@@H](C#N)NC(=O)[C@@H]4CNCCCCO4)c(F)c3)cc12` [Compound 42] has an inhibition at 0.005 µM (DPP1 in HL-60 cells) of at most 76.5% and an inhibition at 0.01 µM (human DPP1 enzyme) of 40 to 66.7%.

Reference: patent publication US20260008760A1, “DIPEPTIDYL PEPTIDASE 1 INHIBITORS AND USES THEREOF” (Insmed Incorporated, priority 2024, published 2026)
